Results on two molecules are retold here after article PMC10675777, “Experimental Evaluation of the Hypersensitivity Reactions of a New Glycopeptide Antibiotic Flavancin in Animal Models” (Pharmaceuticals, 2023).

The subject of data set [1] is guinea pigs. The experiment in a line: General anaphylaxis reaction (anaphylactic shock).
Experimental: In order to determine the anaphylactogenic properties of flavancin, we selected two technically simple and easily reproducible tests: general anaphylaxis reaction and active skin anaphylaxis.
Adult guinea pigs weighing 300–350 g were randomized into three groups (n = 10). […] These doses were determined based on the effectiveness in mice (ED100), with adjustments made using the coefficient of the animals’ body surface [28]. Saline was used as the control in the experiment. As for the reference agent, cattle serum was employed, with a dose of 0.1 mL for sensitizing doses and 0.5 mL for the resolving doses. The sensitizing doses were following a scheme: the first injection was given subcutaneously, while the subsequent two injections were administrated intramuscularly, with a 48 h interval between each injection. The resolving dose was administered intracardially 21 days after the last day of sensitization.
For a further data set, the system named is histamine. The experiment in a line: Histamine in blood plasma after intravenous administration (Histamine-ELISA). To be noted: for Histamine Level in plasma: female CBA mice, n = 10, single i.v., equitoxic doses (~MTD): vancomycin 300 mg/kg, flavancin 100 mg/kg, ELISA.
The next data set deals with concanavalin A. The conditions noted are these: for The Mass of the Hind Leg Foot, Con A, Me, Mean ± SD / The Mass of the Hind Leg Foot, Saline, Mc, Mean ± SD: female CBA mice, n = 10, weighed 1 h later; for The Mass of the Hind Leg Foot, Con A, Me, Mean ± SD: Con A 0.5% into pad 1 h post-injection; for The Mass of the Hind Leg Foot, Saline, Mc, Mean ± SD: saline into contralateral pad; for RI (reaction index to concanavalin A) / Relative Increase Me Over Mc: mice; for Relative Increase Me Over Mc: (Me − Mc)/Mc × 100%. As to the method: Its administration causes nonimmune activation of histamine release and inflammatory edema at the injection site.
The experiment was carried out in accordance with «Guidelines on the assessment of allergic properties of drugs» [30]. Healthy female CBA mice weighing 20–24 g were divided into five groups, in cages of 10. […] 10 mL/kg of 5% glucose solution was administered to the animals of control group. One hour post-injection, 0.5% Con A in isotonic sodium chloride solution (0.01 mL/10 g body mass) was injected into the pad of the hind legs and the same volume of isotonic solution of sodium chloride was injected into the contralateral extremity of mice in the experimental and control groups. One hour later, the mice were euthanized. The hind legs were amputated at the hock joint and weighed. Relative increase Me over Mc in each group was calculated using the formula (Me − Mc)/Mc × 100%, where Me is the mass of the foot injected with Con A and Mc is the mass of the foot injected with saline solution. The RI of the group of animals receiving the drug, exceeding 20%, is considered significant and indicates an inflammatory reaction to concanavalin A.

The subject of data set [2] is guinea pigs. To be noted: Evans blue. Here is the method: In the study of active skin anaphylaxis, the sensitizing doses of flavancin were administered following the same scheme as described previously. The resolving dose, which consisted of a 0.1% solution of the dosage form of the drug in a 5% glucose solution with a volume of 0.05 mL per guinea pig, was administered intradermally 21 days after the last day of sensitization into a previously […] area of the flank skin. After 30 min, both the experimental and control groups of animals were intracardially injected with 0.5 mL of 1% Evans blue solution. Thirty minutes later, the animals were euthanized using ether anesthesia. The skin where the drug was intradermally administrated was then separated, and the diameter of the blue spot was measured and recorded. The collected quantitative data were statistically analyzed using a significance level of p < 0.05.

The conditions of data set [3]: rat, in vivo, iv, 6.25 mg/kg.
Experimental: Experimental animals were divided into groups of six at each time point. Flavancin was administered intravenously into the tail vein at a single dose of 6.25 mg/kg (5 TD). Control rats were injected with glucose solution in the same volume. Blood was collected 5, 15, 30 min and 1 h after injection into heparinized plastic tubes. Blood samples were centrifuged for 20 min at 1500 rpm. The supernatant was poured into tubes and stored at −20 °C until chromatographic analysis. Quantitative determination of flavancin in blood samples was carried out by high-performance liquid chromatography method (HPLC) with fluorimetric detection.
The method is based on the chromatography of specially prepared samples using a high-performance liquid chromatograph with a fluorescence detector and a reversed-phase column.
Gradient separation was performed at 40 °C on a column Jupiter C18 (250 mm × 4.6 mm, particle size 5 microns; Security Guard Cartridge, Phenomenex, Torrance, CA, USA). […] Detection was carried out using a fluorescence detector (Waters 2475, Waters Associates, Framingham, MA, USA) (excitation—240 nm, emission—330 nm). […] The lower limit of the quantitative determination of flavancin was 0.8 µg/mL. […]
Eight hundred µL of supernatant was replaced in 1.5 mL Eppendorf plastic tubes. […] The supernatant was analyzed by HPLC. […]
Details of data set [4]: method as in PMID 1693055. To be noted: cited from earlier work.
The subject of a further data set is patients. The conditions noted are these: patients treated with vancomycin; cited from earlier work. As to the method:
This reaction is typically associated with intravenous administration of doses exceeding 1000 mg and administrated at a rate of less than 60 min [5]. […] More recently, the mechanism behind some IgE-independent reactions, previously referred to as pseudo ...

Structures can show the parent of a compound that is named as a salt. Where two headings read alike, the source gives them in different places.

Experimental for histamine: The amount of histamine in the blood plasma of mice was detected 0.5, 1.5 and 3 min after a single intravenous administration of drugs.
Female CBA mice weighing 18–20 g were divided into groups of 10 animals each. Flavancin was dissolved in 5% glucose and administrated via the tail vein to the mice at a dose equivalent to one TD (2.5 mg/kg) or MTD (100 mg/kg). […] Untreated animals were used as the control group.
The animals were euthanized after 0.5, 1 and 1.5 min in an experiment using equiterapeutic doses and 0.5, 1.5 and 3 min for an experiment with the use of equitoxic doses, and the blood samples were collected after the drug administration. Next, 500 µL of whole blood, which had been drawn into 10 µL of heparin (30–50 IU) was centrifuged for 20 min at 2000 rpm. To perform the histamine analyses, 20 µL of plasma was mixed with dilutions of saline at ratios of 1:10 and 1:20. The amount of histamine was determined using an automatic biochemical and enzyme immunoassay analyzer (ChemWell, Awareness Technology, Inc., Palm City, FL, USA). The histamine detection was performed using the Histamine-ELISA reagent kit (Tecan Group Company, Männedorf, Switzerland).

As to `CN[C@H](CC(C)C)C(=O)N[C@H]1C(=O)N[C@@H](CC(N)=O)C(=O)N[C@H]2C(=O)N[C@H]3C(=O)N[C@H](C(=O)N[C@H](C(=O)NCCNCc4ccccc4F)c4cc(O)cc(O)c4-c4cc3ccc4O)[C@H](O[C@H]3C[C@](C)(N)[C@@H](O)[C@H](C)O3)c3ccc(cc3)Oc3cc2cc(c3O[C@@H]2O[C@H](CO)[C@@H](O)[C@H](O)[C@H]2O[C@H]2C[C@](C)(N)[C@@H](O)[C@H](C)O2)Oc2ccc(cc2Cl)[C@H]1O` [flavancin, N-(2((2-fluorobenzyl)amino)ethyl)amide of eremomycin hydrochloride], the “Effect (general anaphylaxis reaction, anaphylactic shock)” value is “no” in the data set with guinea pigs [1] (n = 10, sensitized with saline solution 1.0 mL x3, resolving flavancin 3.0 mg/kg intracardially); “does not induce anaphylactic shock and no” in the data set on guinea pigs [1] (n = 10, sensitizing 0.5 mg/kg (1TD) subcutaneous then twice intramuscularly, 48 h interval, resolving 3.0 mg/kg (6TD) intracardially 21 days after sensitization); “does not induce anaphylactic shock and no” in the data set with guinea pigs [1] (n = 10, sensitizing 1.5 mg/kg (3TD) subcutaneous then twice intramuscularly, 48 h interval, resolving 3.0 mg/kg (6TD) intracardially 21 days after sensitization). The “Histamine Level in plasma” value with histamine (0.5 min) stood at 549.9 ± 92.6 µg/L; with histamine (1.5 min) it was 796.2 ± 56.3 µg/L; in the data set with histamine (3 min), 297.7 ± 54.9 µg/L. Besides, the “Histamine level in the blood compared to vancomycin” value in the data set on histamine (mice, equivalent (therapeutic) dose, after 30 s) was “three times lower”. Moreover, the “The Mass of the Hind Leg Foot, Con A, Me, Mean ± SD” value (from here on “The Mass … Me, Mean ± SD”) in the data set on concanavalin A (drug i.v. at MTD) stood at 151.5 ± 3.0 mg; with concanavalin A (drug i.v. at TD) it was 154.3 ± 2.1 mg. The figures for the “The Mass of the Hind Leg Foot, Saline, Mc, Mean ± SD” value (shortened to “The Mass … Mc, Mean ± SD”) with concanavalin A (drug i.v. at MTD) and with concanavalin A (drug i.v. at TD) were 139.3 ± 2.9 mg and 142.1 ± 2.0 mg, respectively. Moreover, the “RI (reaction index to concanavalin A)” value was “less than 20%” in the data set with concanavalin A (both doses studied (TD and MTD), below 20% means no pseudoallergic reaction); 7.3% with concanavalin A (drug i.v. at MTD, RI exceeding 20% is significant); 3.7% in the data set on concanavalin A (drug i.v. at TD, RI exceeding 20% is significant). Besides, the “Relative Increase Me Over Mc” value was determined as 8.8% in the data set with concanavalin A (drug i.v. at MTD) and 8.5% in the data set with concanavalin A (drug i.v. at TD). Further, the “Blue Spot Diameter” value in the data set on guinea pigs [2] (sensitizing 0.5 mg/kg x3, resolving 0.05 mL per pig of 0.1% solution 21 days after sensitization) came out at 2.3 ± 0.6 cm; in the data set with guinea pigs [2] (sensitizing 1.5 mg/kg x3, resolving 0.05 mL per pig of 0.1% solution 21 days after sensitization) it was 2.4 ± 0.5 cm. The molecule also yielded a level at 1 h in data set [3] of 5000 ng/mL.

As for vancomycin [reference compound], in the data set on concanavalin A (drug i.v. at MTD), the “The Mass … Me, Mean ± SD” value turned out to be 149.4 ± 3.0 mg and the “The Mass … Mc, Mean ± SD” value was 131.8 ± 3.6 mg. Also, in the data set on concanavalin A (drug i.v. at TD), the “The Mass … Me, Mean ± SD” value came to 158.1 ± 3.8 mg and the “The Mass … Mc, Mean ± SD” value is recorded as 140.4 ± 2.3 mg. In data set [4] (60-min intravenous infusion at a therapeutic dose, before the decrease), the “Vancomycin concentration in the blood after infusion” value is given as 51.1 ± 9.2. Besides, in data set [4] (1 h after a 60-min intravenous infusion at a therapeutic dose), the “Vancomycin concentration in the blood 1 h after infusion” value is recorded as 24.9 ± 2.9. The “Occurrence of Red Man Syndrome (non-IgE-mediated hypersensitivity)” value in the data set with patients is 4–47%.
